The source of these data is patent US11203565B2, “Ester compound and PIN1 inhibitor, inflammatory disease therapeutic, and colon cancer therapeutic in which said ester compound is used” (Hiroshima University, priority 2016, dated 2021).

T1 sequence (Q13526 whole entry): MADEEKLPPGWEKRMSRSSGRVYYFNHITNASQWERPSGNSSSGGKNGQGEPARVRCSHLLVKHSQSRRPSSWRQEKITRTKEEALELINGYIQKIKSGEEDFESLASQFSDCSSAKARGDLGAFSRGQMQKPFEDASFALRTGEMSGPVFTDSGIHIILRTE

The first assay concerns the target T1, Pin1 (Homo sapiens, UniProt Q13526).
T1 construct: endogenous in cells; host or cells: 293T cells
Put plainly: Evaluation of inhibitory activity on function of Pin1: cell assay using degree of AMPK phosphorylation as index. It counts as cell-based. Also noted: key to Pin1 inhibitory activity: −: Promotion of AMPK phosphorylation was not (or hardly) found.; +: Phosphorylation of AMPK was promoted, but the promotion was weaker than that by C1.; ++: Phosphorylation of AMPK was promoted to the same degree as in the case of C1.; +++: Phosphorylation of AMPK was promoted more strongly than in the case of C1. The note with it: 293T cells, compound 100 μM, 10 mM 2-DG, pAMPK immunoblot rated by comparison with C1. Here is the method:
In order to evaluate the inhibitory activities of the compounds of the present invention synthesized in Example 2 on the function of Pin1, an assay using cells was carried out according to a method previously developed by the present inventors (Yusuke Nakatsu et al., Journal of Biological Chemistry, 2015, Vol. 290, No. 40, pp. 24255-24266), using as an index the degree of phosphorylation of AMPK (AMP-activated protein kinase), whose phosphorylation is known to be suppressed by Pin1.
Briefly, 293T cells were plated on a 24-well plate coated with collagen. Forty-eight hours later, each compound (100 μM) synthesized in the Example was added to the plate, and the plate was left to stand in an incubator for 30 minutes. Thereafter, 10 mM 2-DG was added to the plate, and, 1 hour later, each sample was collected using a buffer containing mercaptoethanol and SDS.
According to conventional methods, SDS-PAGE and blotting were carried out, and then blocking was carried out with 3% BSA for 1 hour. Thereafter, reaction was carried out at normal temperature for 1 hour with each of a pAMPK antibody (Cell signaling 1:2000, Can get signal solution 1: diluted by Toyobo) as a primary antibody, and an HRP-linked anti rabbit IgG (GE healthcare 1:4000, Can get signal solution 2: diluted by Toyobo) as a secondary antibody, to perform detection.
As a compound to be compared, C1: (R)-2-(5-(4-methoxyphenyl)-2-methylfuran-3-carboxamido)-3-(naphthalene-6-yl)propanoic acid, which is an already reported Pin1 inhibitor, was used.
In FIG. 3, “-” indicates the degree of phosphorylation of AMPK in a case where no Pin1 inhibitor was added, and “C1”, “H-30”, “H-31”, “H-32”, and “H-33” indicate the degrees of phosphorylation of AMPK in cases where the respective Pin1 inhibitors were added. […] The inhibitory activity on the function of Pin1 was rated as follows based on comparison with the degree of inhibition by C1.
As for `O=C(Cc1c[nH]c2ccccc12)O[C@H](Cc1ccc2ccccc2c1)C(=O)O` [Compound H-180], the Pin1 inhibitory activity entry is “++”.
Regarding `O=C(O[C@H](Cc1ccc2ccccc2c1)C(=O)O)c1ccc(Cl)c(Cl)c1` [Compound H-269], the Pin1 inhibitory activity result is reported as “+”.
On to `O=C(O[C@H](Cc1ccc2ccccc2c1)C(=O)O)c1ccc(-c2ccccc2)cc1` [Compound H-33], for which the Pin1 inhibitory activity entry is reported as “+”.
For the compound `O=C(O)[C@@H](Cc1ccc2ccccc2c1)OC(=O)n1c2ccccc2c2ccccc21` [Compound H-175], the Pin1 inhibitory activity result was “+++”.
Still for that read-out and setting: next, `O=C(O[C@H](Cc1ccc2ccccc2c1)C(=O)O)c1ccc2ccccc2c1` [Compound H-30]: “++”.
`O=C(COc1ccccc1)O[C@H](Cc1ccc2ccccc2c1)C(=O)O` [Compound H-176]: the Pin1 inhibitory activity result is on record as “++”.
On to `COc1ccc(-c2cc(C(=O)O[C@H](Cc3ccc4ccccc4c3)C(=O)O)c(C)o2)cc1` [Compound H-32], for which the Pin1 inhibitory activity result was “+”.
With `O=C(O[C@@H](Cc1ccc2ccccc2c1)C(=O)O)C1c2ccccc2-c2ccccc21` [Compound H-141], the Pin1 inhibitory activity result is “+++”.
Regarding `O=C(Cc1cccc2ccccc12)O[C@H](Cc1ccc2ccccc2c1)C(=O)O` [Compound H-151], the Pin1 inhibitory activity result is on record as “++”.
Take `O=C(O[C@H](Cc1ccc2ccccc2c1)C(=O)O)c1ccccc1Oc1ccccc1` [Compound H-132]: the Pin1 inhibitory activity entry is recorded as “+”.
Consider `O=C(COc1ccc2ccccc2c1)O[C@H](Cc1ccc2ccccc2c1)C(=O)O` [Compound H-177], for which the Pin1 inhibitory activity entry was “++”.
Turning to `COc1ccc(C(=O)O[C@H](Cc2ccc3ccccc3c2)C(=O)O)cc1OC` [Compound H-266], the Pin1 inhibitory activity entry is reported as “+”.
In the case of `COc1cc(OC)cc(C(=O)O[C@H](Cc2ccc3ccccc3c2)C(=O)O)c1` [Compound H-198], the Pin1 inhibitory activity entry is “+”.
On the same count and under the same terms, next, `O=C(CC1c2ccccc2-c2ccccc21)O[C@H](Cc1ccc2ccccc2c1)C(=O)O` [Compound H-106]: “++”.
In the case of `O=C(COc1cccc2ccccc12)O[C@H](Cc1ccc2ccccc2c1)C(=O)O` [Compound H-179], the Pin1 inhibitory activity result is on record as “+++”.
As to `O=C(O[C@H](Cc1ccc2ccccc2c1)C(=O)OCc1ccccc1)c1ccc2ccccc2c1` [Compound H-21], the Pin1 inhibitory activity result is listed as “−”.
Consider `CC(C)(C)OC(=O)N[C@@H](Cc1ccccc1)C(=O)O[C@H](Cc1ccc2ccccc2c1)C(=O)O` [Compound H-248], for which the Pin1 inhibitory activity entry is “+”.
Still for that read-out and setting: next, `Cc1cc(C)cc(C(=O)O[C@H](Cc2ccc3ccccc3c2)C(=O)O)c1` [Compound H-210]: “+”; `O=C(O[C@H](Cc1ccc2ccccc2c1)C(=O)O)c1cc(Cl)cc(Cl)c1` [Compound H-200]: “+”.
Still for that read-out and setting: next, `O=C(O[C@H](Cc1ccc2ccccc2c1)C(=O)O)c1ccc(C(O)c2ccccc2)cc1` (stereo partly shown) [Compound H-23]: “++”; `O=C(O[C@H](Cc1ccc2ccccc2c1)C(=O)O)c1ccc(F)c(F)c1` [Compound H-270]: “+”.
The same measure, in the same setting: next, `O=C(Cc1ccc2ccccc2c1)O[C@H](Cc1ccc2ccccc2c1)C(=O)O` [Compound H-149]: “+”; `O=C(O)[C@@H](Cc1ccc2ccccc2c1)OC(=O)N1c2ccccc2Oc2ccccc21` [Compound H-157]: “++”; `Cc1ccc(C(=O)O[C@H](Cc2ccc3ccccc3c2)C(=O)O)cc1C` [Compound H-265]: “+”.
Take `O=C(O[C@H](Cc1ccc2ccccc2c1)C(=O)O)C(c1ccccc1)c1ccccc1` [Compound H-134]: the Pin1 inhibitory activity entry is on record as “++”.
As for `O=C(O[C@H](Cc1ccc2ccccc2c1)C(=O)O)c1cccc(Oc2ccccc2)c1` [Compound H-130], the Pin1 inhibitory activity entry is “++”.
`O=C(O[C@H](Cc1ccc2ccccc2c1)C(=O)O)c1ccc(Oc2ccccc2)cc1` [Compound H-123]: the Pin1 inhibitory activity entry is listed as “++”.

Still in this assay, the particulars now being: cell-based experiment, 293T cells, 100 μM.
`O=C(O[C@@H](Cc1ccc2ccccc2c1)C(=O)O)C1c2ccccc2-c2ccccc21` [Compound H-141]: the “inhibitory activity on Pin1 (stated in words)” value is given as “both have inhibitory activities on Pin1”.
Take `O=C(O[C@H](Cc1ccc2ccccc2c1)C(=O)OCc1ccccc1)c1ccc2ccccc2c1` [Compound H-21]: the “inhibitory activity on Pin1 (stated in words)” value was “no inhibitory activity on Pin1”.

In another assay the test system is model animals of ulcerative colitis (3% DSS). Put plainly: Therapeutic experiment using model animals of ulcerative colitis (Example 4). The class given is in vivo, C57BL6 mice. The note with it: DSS mice, 5-ASA 300 mg/kg/day, Day 7. The protocol:
To C57BL6 mice of 8 weeks old, 3% DSS (dextran sulfate sodium)-containing water or water (control) was administered by allowing the mice to drink it for 7 days. For the mice to which DSS was administered, groups in which 5-ASA (compound name: 5-aminosalicylic acid; generic name: Mesalazine), which is a therapeutic agent for inflammatory bowel diseases, the compound synthesized in Example 2-7 (H-31), or the compound synthesized in Example 2-36 (H-179) was administered, and a group in which no compound was administered were provided. On Day 7 after the beginning of the administration, the body weight of each mouse was measured, and the large intestine was removed from the mouse, followed by carrying out histological study. […] In FIGS. 4(A) and (B), “normal” indicates a case where water was administered, and “DSS” indicates cases where DSS-containing water was administered. “non” indicates a case where no compound was administered, and “5-ASA”, “H-31”, and “H-179” indicate cases where the respective compounds were administered. The dose was as follows: 5-ASA, 300 mg/kg/day; H-31, 1 mg/kg/day; H-179, 1 mg/kg/day. As shown in FIG. 4(A), weight loss due to inflammation of the intestine was found in the cases where DSS was administered.
`Nc1ccc(O)c(C(=O)O)c1` [Compound 5-ASA, 5-aminosalicylic acid, reference compound]: the “tissue damage in the large intestine (stained section)” value (shortened to “tissue damage in the large intestine”) is “tissue damage in the large intestine due to DSS was found”.

Still in this assay, the particulars now being: DSS mice, compound 1 mg/kg/day, Day 7.
For the compound `O=C(COc1cccc2ccccc12)O[C@H](Cc1ccc2ccccc2c1)C(=O)O` [Compound H-179], the “tissue damage in the large intestine” value was “tissue damage in the large intestine was hardly found”.

Staying with this assay, now noted: DSS mice, compound 1 mg/kg/day, Day 7, vs no compound.
Regarding `O=C(COc1cccc2ccccc12)O[C@H](Cc1ccc2ccccc2c1)C(=O)O` [Compound H-179], the “weight loss (body weight as ratio to body weight before administration)” value is listed as “the weight loss was significantly smaller”.

For the next assay the test system is unchanged. Put plainly: Therapeutic experiment using model animals of ulcerative colitis 2 (Example 6). The class given is in vivo, C57BL6 mice. Conditions: DSS mice, 5-ASA 300 mg/kg/day or 150 mg/kg/day.
Protocol: To C57BL6 mice of 8 weeks old, 3% DSS (dextran sulfate sodium)-containing water or water (control) was administered by allowing the mice to drink it for 7 days. […] On Day 7 after the beginning of the administration, the body weight of each mouse was measured, and the large intestine was removed from the mouse, followed by carrying out histological study. […] In addition, an experiment for measuring the colon length was carried out.
On to `Nc1ccc(O)c(C(=O)O)c1` [Compound 5-ASA, 5-aminosalicylic acid, reference compound], for which the “tissue damage in the large intestine” value is listed as “tissue damage in the large intestine due to DSS was found” and the weight loss entry is on record as “No significant effect was found”.

The subject of a further assay is Pin1 protein. Put plainly: Confirmation of Pin1 expression level in the intestinal tract of DSS mice (Example 7). It counts as in vivo. The note with it: after 7 days of administration. The protocol:
The expression level of Pin1 in the intestinal tract was measured for each mouse subjected to the therapeutic experiment in Example 5.
The present results also support that the compound synthesized in Example 2-7 (H-31) prevents development of ulcerative colitis.
Turning to `Nc1ccc(O)c(C(=O)O)c1` [Compound 5-ASA, 5-aminosalicylic acid, reference compound], the “increase in the Pin1 protein level in the intestinal tract” value is reported as “could not be ameliorated”.

The subject of a further assay is mice having induced inflammation of the large intestine.
Assay: not given
Conditions: oral administration to mice, Non-patent Document 7; cited from earlier work.
In the case of `O=C1C=CC(=O)c2c(O)cccc21` [Juglone], the “development of inflammation of the large intestine” value was “development of the inflammation can be suppressed”.
With `COc1ccc(-c2cc(C(=O)N[C@H](Cc3ccc4ccccc4c3)C(=O)O)c(C)o2)cc1` [Compound C1, (R)-2-(5-(4-methoxyphenyl)-2-methylfuran-3-carboxamido)-3-(naphthalene-6-yl)propanoic acid], the “development of inflammation of the large intestine” value was “development of the inflammation can be suppressed”.
